# Columns and labels:
# [1] = system: TNFα production in human whole blood; test: Inhibition of the production of TNFα in vitro in human whole blood (Test Examples 1 and 1′); assay type: cell-based; settings: Table 7′, lipopolysaccharide 10 μg/ml, 6 hours at 37° C., plasma TNFα by ELISA, least squares, read-out: Inhibitory Effect on TNFα Production (in vitro) IC50
# Method: (§1) Inhibition of the Production of the Cytokines IL-1β and TNFα in Vitro in Human Whole Blood
# (§2) This test was performed according to the method of Hartman, et al. [D. A. Hartman, S. J. Ochalski and R. P. Carlson; The effects of anti-inflammatory and antiallergic drugs on cytokine release after stimulation of human whole blood by lipopolysaccharide and zymosan A: Inflamm. Res., 44, 269 (1995)].
# (§3) Peripheral blood samples were collected in the presence of heparin from healthy adult volunteers. 1000 μl of whole blood were added to an Eppendorf tube to which 2 μl of a dimethyl sulfoxide solution of the test compound had been added in advance, after which 10 μl of lipopolysaccharide (E. coli 026: B6 origin, Difco) were added as a stimulant (final concentration of said lipopolysaccharide: 10 μg/ml). This was mixed well and then incubated for 6 hours at 37° C. in the presence of 5% CO2. At the end of the incubation, the mixture was cooled to 4° C. to stop the reaction, followed immediately by centrifuging for 5 minutes at 14,000 rpm to separate and collect the supernatant plasma. The IL-1β and TNFα produced and released into the plasma were measured using a commercially available enzyme immunoassay (ELISA) kit [Cayman (IL-1β) and Genzyme (TNFα)]. The procedure was also repeated in the absence of test compound. The inhibitory effect [IC50 (μM)] on the production of IL-1β and TNFα was determined from the amounts of the cytokines produced in the presence and absence of the test compound.
# (§4) Inhibition of the Production of the Cytokines IL-1β and TNFα In Vitro in Human Whole Blood
# as §3, with “O26:” for “026:”, “plasma” for “plasma.”, “kits” for “kit”, “determined by the method of least squares” for “determined”
# [2] = system: IL-1β production in human whole blood; test: Inhibition of the production of IL-1β in vitro in human whole blood (Test Examples 1 and 1′); assay type: cell-based; settings: Table 8′, lipopolysaccharide 10 μg/ml, 6 hours at 37° C., plasma IL-1β by ELISA, least squares, read-out: Inhibitory Effect on IL-1β Production (in vitro) IC50
# Method: as §1, §2, §3, §4
# as §3, with “O26:” for “026:”, “plasma” for “plasma.”, “kits” for “kit”, “determined by the method of least squares” for “determined”
# TNFα production = test: Inhibition of the production of TNFα in vivo (Test Examples 2 and 2′); settings: Table 9′; Balb/c mice, oral administration 30 minutes before intravenous lipopolysaccharide, plasma TNFα 1 hour after LPS
# Method: This test was performed according to the method of Ochalski, et al. [S. J. Ochalski, D. A. Hartman, M. T. Belfast, T. L. Walter, K. B. Glaser and R. P. Carlson; Inhibition of endotoxin-induced hypothermia and serum TNF-α levels in CD-1 mice by various pharmacological agents: Agents Actions 39, C52–C54 (1993)].
# The production of TNFα was induced in mice by the intravenous injection of lipopolysaccharide (E. coli O26: B6 origin, Difco) which was prepared to a concentration of 0.045 mg/ml using physiological saline. The saline preparation of lipopolysaccharide was administered at the rate of 10 ml/l kg of body weight into the caudal vein of Balb/c mice (males, age 5–7 weeks, body weight: approx. 22 g, Japan Charles River) which had been fasted overnight starting on the day before the experiment. One hour after administration, the mice were laparotomized under ether anaesthesia and blood was collected from the abdominal vena cava. Blood collection was performed using a 1 ml volume disposable syringe equipped with a 23G needle which had been moistened with heparin on the inside wall. Following blood collection, the blood was immediately transferred to a 1.5 ml volume Eppendorf tube and centrifuged at 4° C. and 14,000 rpm to separate the plasma. This plasma was then stored at −20° C. until measurement of TNFα. The measurement of the amount of TNFα was performed with a commercially available enzyme immunoassay (ELISA) kit (Mouse TNFα ELISA KIT, Genzyme).
# To determine the inhibitory activity of the test compounds, each test compound was suspended in a 0.5% tragacanth solution and then administered orally to the Balb/c mice at the rate of 10 ml/1 kg of body weight 30 minutes before injection of lipopolysaccharide. The level of TNFα production was then determined as described above. In the control group, 0.5% tragacanth solution was administered at the rate of 10 ml/1 kg of body weight to the test mice instead of the solutions of the test compounds. A minimum of 3 dose levels of the test compound was administered to groups of 5 test mice for each test compound. The inhibitory rate relative to the control group was calculated for each dose level. From the inhibitory rates and the dosages, ID50 values were calculated by the least squares method.
# The production of TNFα was induced in mice by the intravenous injection of lipopolysaccharide (E. coli O26: B6 origin, Difco) which was prepared to a concentration of 0.045 mg/ml using physiological saline. […]
# To determine the inhibitory activity of the test compounds, each test compound was suspended in a 0.5% tragacanth solution and then administered orally to the Balb/c mice at the rate of 10 ml/1 kg of body weight 30 minutes before injection of lipopolysaccharide. The level of TNFα production was then determined as described above. […]
# [3] = system: adjuvant-induced arthritis; test: Activity in preventing the development of adjuvant-induced arthritis in vivo (Test Examples 4 and 4′); settings: Table 10′; Lewis rat, oral once a day from day 0 to day 20, inhibition of swelling of injected foot on day 21
# Method: The test was performed according to the method described by Winder et al. (Arthritis Rheum., 12, 472–482, 1969). Heat-killed dried Mycobacterium butyricum (Difco Laboratories, Lot 679123) was ground on an agate mortar, and was then suspended in dry-sterilised liquid paraffin (first grade, Wako Pure Chemical Industries, Ltd.) to make a 2 ml suspension. The resulting suspension was then sonicated and used as an adjuvant. Arthritis was induced by the intradermal injection of the adjuvant (100 μg of heat killed dried bacterium/0.05 ml of paraffin/paw) into the heel of the right hind paw of a Lewis rat (male, age 8 weeks, Japan Charles River). […] The volumes of the swollen feet (adjuvant-injected right hind foot volume—non-injected left hind foot volume) were calculated. The percent inhibition of swelling of the injected foot of the treated animals as compared to that of the control animals on day 21 was calculated as follows. […] ID50 values were calculated using this curve. […] […]
Structure (SMILES),IC50 [1] [nM],IC50 [2] [nM],Inhibitory Effect on TNFα Production (in vivo) IC50 (TNFα production) [mg/kg],Activity in Preventing the Development of Adjuvant-Induced Arthritis in vivo IC50 [3] [mg/kg]
"CC1=CC2C=C(c3c[nH]c(-c4ccc(F)cc4)c3-c3ccncc3)CCN2C1 (stereo in doubt) [Example 31′, 2-(4-Fluorophenyl)-4-[(8aS)-2-methyl-3,5,6,8a-tetrahydroindolizin-7-yl]-3-(pyridin-4-yl)-1H-pyrrole]",2.4,4.6,0.36,–
"Fc1ccc(-c2[nH]cc(C3=C[C@@H]4C[C@H](c5ccccc5)CN4CC3)c2-c2ccncc2)cc1 [Example 12′, 2-(4-Fluorophenyl)-4-[(2R,8aS)-2-phenyl-1,2,3,5,6,8a-hexahydroindolizin-7-yl]-3-(pyridin-4-yl)-1H-pyrrole]",2.5,2.6,–,2.1
"CC[C@H]1C[C@H]2C=C(c3c[nH]c(-c4ccc(F)cc4)c3-c3ccncc3)CCN2C1 [Example 32′, 4-[(2S,8aS)-2-Ethyl-1,2,3,5,6,8a-hexahydroindolizin-7-yl)-2-(4-fluorophenyl)-3-(pyridin-4-yl)-1H-pyrrole]",4.5,2.7,0.61,–
"CCC[C@H]1C[C@H]2C=C(c3c[nH]c(-c4ccc(F)cc4)c3-c3ccncc3)CCN2C1 [Example 43′, 2-(4-Fluorophenyl)-4-[(2S,8aS)-2-propyl-1,2,3,5,6,8a-hexahydroindolizin-7-yl]-3-(pyridin-4-yl)-1H-pyrrole]",6,8,0.40,–

# From patent publication US7122666B2, “Heteroaryl-substituted pyrrole derivatives, their preparation and their therapeutic uses” (Sankyo Company, Limited, priority 1999, dated 2006)
